Reference: PMC4249368 (Antimicrobial Agents and Chemotherapy, 2014)
In brackets after ≈: the same amount, converted by molar mass. Entries after “also recorded” stand apart in the source; their conditions may differ.

Legend:
[1] = tested on: MSSA ATCC 25923; experiment: Membrane depolarization assay with DiSC3(5); assay type: cell-based, Staphylococcus aureus
Description: Antibiotic-induced bacterial cytoplasmic membrane depolarization was determined by using the fluorescent dye 3,3-dipropylthiacarbocyanine [DiSC3(5); Sigma-Aldrich, Australia] as previously described ([38]) with a high-throughput modification. Briefly, mid-logarithmic-phase MSSA ATCC 25923 cells were collected by centrifugation (5,000 × rpm, 10 min), washed once and diluted to approximately 5 × 10^7 CFU/ml in buffer (5 mM HEPES, 5 mM glucose; pH 7.2). The cell suspension was incubated with 0.4 μM DiSC3(5) until dye uptake was maximal, as indicated by a stable reduction in fluorescence of assay medium. KCl at 100 mM was added to equilibrate the cytoplasmic and external K^+ concentrations. A 90-μl aliquot of cell suspension was transferred into an Optiplate 96-well white microplate (PerkinElmer Corp., Australia), and 10 μl of antibiotic was added, to yield a series of solutions ranging from 0.1 to 30 μM. A blank with only cell suspension and dye was used for background subtraction. The fluorescence intensity was monitored in real time by using a BMG Labtech PolarStar Omega multimode reader fitted with 620-10 and 665-10 excitation and emission filters, respectively, at an excitation wavelength of 622 nm and an emission wavelength of 670 nm. The membrane depolarization assays were performed in triplicate, and the fluorescence leakage (FL) was defined by the following equation: FL = (FF − FB) − (FI − FB). Here, FF was the final fluorescence intensity in assay medium after 30 min of treatment with antibiotic, FI was the initial fluorescence intensity of the cell suspension, and FB was the fluorescence intensity of the blank.

[2] = tested on: MSSA ATCC 25923; experiment: TEM examination of bacterial ultrastructure; assay type: cell-based, Staphylococcus aureus; settings: 3 h, 37°C, CA-MHB
Description: After centrifugation (8,000 × rpm, 3 min), the pellets were resuspended in 1 ml of 3% (vol/vol) glutaraldehyde in 0.1 M sodium cacodylate. Glutaraldehyde–fixed samples were washed twice with 0.1 M sodium cacodylate. To postfit cells, 1% (wt/vol) osmium tetraoxide was added. After the wash step, samples were stained with 2% (wt/vol) uranyl acetate in 50% ethanol. Samples were then dehydrated with graded ethanol solutions and infiltrated with Epon resin (ProSciTech, Townsville, Australia). All processes were performed on a Pelco 34700 Biowave microwave oven (Ted Pella Inc., Redding, CA). Ultrathin sections were cut at 60 to 70 nm by using a UC6 ultramicrotome (Leica). The sections were examined in a JEM 1011 TEM operated at 80 kV and photographed using a digital camera.

[3] = tested on: MSSA ATCC 25923; settings: for MBC, 50% Human serum: Table S1, MHB with 50% human serum; for MBC, MHB: Table S1, MHB without serum, clear wells plated onto agar, 37°C overnight
Description: MICs against MSSA ATCC 25923 were measured by broth microdilution according to the Clinical and Laboratory Standards Institute (CLSI) M7-A7 methodology ([30]). Briefly, serial 2-fold dilutions of each antibiotic were added into Costar nontreated polystyrene 96-well plates, and each well was inoculated with 50 μl of MSSA in MHB to a final concentration of approximately 5 × 10^5 CFU/ml. […] The dilution representing the MIC and two of the more and less concentrated dilutions were plated out onto Trypticase soy agar plates and enumerated to determine viable CFU/ml ([31]). […]
25923 in MHB media in the presence and absence of Human serum (10% and 50%) in
Corning NonTC microtitre plates (CLS3370)
a The MBCs were determined by plating out the clear wells onto an agar plate and were incubated at
37°C overnight. Each colony represents one viable bacterium. […]

[4] = tested on: MSSA ATCC 25923; settings: for MIC in the presence of 50% human serum: MHB with 50% human serum, broth microdilution
Description: MSSA ATCC 25923 was purchased from the American Type Culture Collection (Manassas, VA). Mueller-Hinton broth (MHB; Bacto Laboratories Pty. Ltd.) was used to grow MSSA for determination of in vitro antibacterial activity in the presence and absence of 50% human serum (Life Technologies Australia, Melbourne, Australia) and time-kill assays. Luria-Bertani (LB) medium (Difco) and MHB adjusted with Ca^2+ (25 mg/liter) and Mg^2+ (12.5 mg/liter) (CA-MHB) were used for bacterial growth in the membrane depolarization assay and TEM, respectively. The phospholipids used for SPR analysis, 1-palmitoyl-2-oleoyl-sn-glycero-3-phosphoglycerol (POPG), 1-palmitoyl-2-oleoyl-sn-glycero-3-phosphocholine (POPC), and 1-palmitoyl-2-oleoyl-sn-glycero-3-phosphoethanolamine (POPE), were purchased from Auspep Pty. Ltd. (Melbourne, Australia).
MICs against MSSA ATCC 25923 were measured by broth microdilution according to the Clinical and Laboratory Standards Institute (CLSI) M7-A7 methodology ([30]). Briefly, serial 2-fold dilutions of each antibiotic were added into Costar nontreated polystyrene 96-well plates, and each well was inoculated with 50 μl of MSSA in MHB to a final concentration of approximately 5 × 10^5 CFU/ml. […] The dilution representing the MIC and two of the more and less concentrated dilutions were plated out onto Trypticase soy agar plates and enumerated to determine viable CFU/ml ([31]).

[5] = tested on: MSSA ATCC 25923; experiment: Time-kill studies (CLSI M26-A); assay type: cell-based, Staphylococcus aureus
Description: Time-kill studies were carried out based on guideline M26-A of the CLSI ([32]), using Costar nontreated polystyrene 96-well plates. […] Culture aliquots were mixed with the charcoal suspension (25 mg/ml) to minimize antibiotic carryover. Viable cell counts were determined after 0, 0.5, 1, 2, 4, 6, 8, and 24 h of incubation at 37°C by plating serially diluted samples onto Trypticase soy agar plates. Bactericidal activity was defined as a ≥3-log10 CFU/ml decrease, in comparison with the baseline, after 24 h of incubation ([32]).

Compound | fluorescence leakage ([1]; 12× MIC, 30 min) | morphological changes by TEM ([2]; 16× MIC) | MBC, 10% Human serum ([3]; Table S1, MHB with 10% human serum) | MBC, 50% Human serum [3] | MBC, MHB [3] | MIC in the presence of 50% human serum ([4]; 24 h, 37°C) | MIC ([4]; MHB, broth microdilution CLSI M7-A7, ~5 × 10^5 CFU/ml, 24 h, 37°C, Costar nontreated polystyrene 96-well plates) | MIC, 10% Human serum ([4]; Table S1, MHB with 10% human serum, Corning NonTC plates) | MIC, 50% Human serum ([4]; Table S1, MHB with 50% human serum, Corning NonTC plates) | MIC, MHB ([4]; Table S1, MHB without serum, Corning NonTC microtitre plates (CLS3370)) | reduction in viable count ([5]; vancomycin at the MBC and above for 8 h) | membrane depolarization (result in words) ([1]; 30 min treatment, 0.1 to 30 μM, Fig. 4, n = 3) | morphological changes by TEM ([2]; 1× MIC) | MBC as multiple of MIC [3] | MBC ([3]; lowest concentration yielding 99.9% reduction in initial colony count after 24 h, MHB) | time to bactericidal activity ([5]; concentrations equal to or above the MBC)
CN[C@H](CC(C)C)C(=O)N[C@H]1C(=O)N[C@@H](CC(N)=O)C(=O)N[C@H]2C(=O)N[C@H]3C(=O)N[C@H](C(=O)N[C@H](C(=O)O)c4cc(O)cc(O)c4-c4cc3ccc4O)[C@H](O)c3ccc(c(Cl)c3)Oc3cc2cc(c3O[C@@H]2O[C@H](CO)[C@@H](O)[C@H](O)[C@H]2O[C@H]2C[C@](C)(N)[C@H](O)[C@H](C)O2)Oc2ccc(cc2Cl)[C@H]1O [vancomycin] | no leakage | did not cause septal deformation or loss of midline | 2 µg/mL (≈ 1.38 µM) | 2 µg/mL (≈ 1.38 µM) | 2 µg/mL (≈ 1.38 µM) | 2 µg/mL | 1 µg/mL (≈ 0.69 µM) | 1/2 | 2 µg/mL (≈ 1.38 µM) | 2 µg/mL (≈ 1.38 µM) | > 3 log10 CFU/ml | – | – | – | – | –
ramoplanin | – | – | – | 0.5 µg/mL | 8/2 | 0.5 µg/mL | – | – | – | – | – | dose-dependent membrane depolarization but less efficiently than nisin | deformed septa that were slightly thickened, misshapen, and lacked distinct septal midlines; also recorded: appearance of mesosome structures in cell membranes | 2 × MIC | 4 µg/mL | less than 4 h
